Source: patent publication US12473293B2, “Pharmacologically active heterocyclic-substituted pyrazolo[1,5-a]pyrimidine derivatives” (Richter Gedeon Nyrt., priority 2020, dated 2025)
Structures can show the parent of a compound that is named as a salt.

molecular target: T1, GABAB receptor (Rattus norvegicus, UniProt O88871+Q9Z0U4); experiment: In vitro [35S]GTPγS binding assay in rat cortical membranes; assay type: biochemical; conditions: PAM EC50, [35S]GTPγS binding, read-out: In vitro PAM potency
T1 construct: from tissue; host or cells: rat brain cortex membranes
T1 sequence (O88871 41-940): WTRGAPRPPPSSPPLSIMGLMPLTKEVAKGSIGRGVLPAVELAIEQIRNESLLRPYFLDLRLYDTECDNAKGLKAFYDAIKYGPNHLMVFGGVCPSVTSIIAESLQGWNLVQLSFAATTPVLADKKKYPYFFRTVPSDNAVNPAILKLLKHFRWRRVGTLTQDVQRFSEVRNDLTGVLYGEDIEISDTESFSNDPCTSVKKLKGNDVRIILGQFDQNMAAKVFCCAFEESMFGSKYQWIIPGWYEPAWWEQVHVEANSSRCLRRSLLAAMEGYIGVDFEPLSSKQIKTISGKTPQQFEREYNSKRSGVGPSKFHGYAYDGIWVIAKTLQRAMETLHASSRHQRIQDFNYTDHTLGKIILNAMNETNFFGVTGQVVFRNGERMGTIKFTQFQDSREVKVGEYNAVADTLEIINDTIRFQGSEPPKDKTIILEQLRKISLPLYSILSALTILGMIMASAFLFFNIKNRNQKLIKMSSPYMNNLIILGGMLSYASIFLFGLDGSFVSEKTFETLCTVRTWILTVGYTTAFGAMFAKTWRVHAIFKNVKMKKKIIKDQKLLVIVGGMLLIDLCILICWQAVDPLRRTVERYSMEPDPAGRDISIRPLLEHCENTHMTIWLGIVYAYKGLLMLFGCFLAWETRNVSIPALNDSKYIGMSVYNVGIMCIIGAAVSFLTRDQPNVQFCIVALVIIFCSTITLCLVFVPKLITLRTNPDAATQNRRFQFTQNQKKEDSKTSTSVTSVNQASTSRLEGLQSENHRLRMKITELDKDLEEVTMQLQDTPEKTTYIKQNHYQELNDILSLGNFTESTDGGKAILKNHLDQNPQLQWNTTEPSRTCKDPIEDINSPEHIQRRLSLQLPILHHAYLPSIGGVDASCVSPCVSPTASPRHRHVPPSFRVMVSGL
T1 sequence (Q9Z0U4 17-960 limits assumed): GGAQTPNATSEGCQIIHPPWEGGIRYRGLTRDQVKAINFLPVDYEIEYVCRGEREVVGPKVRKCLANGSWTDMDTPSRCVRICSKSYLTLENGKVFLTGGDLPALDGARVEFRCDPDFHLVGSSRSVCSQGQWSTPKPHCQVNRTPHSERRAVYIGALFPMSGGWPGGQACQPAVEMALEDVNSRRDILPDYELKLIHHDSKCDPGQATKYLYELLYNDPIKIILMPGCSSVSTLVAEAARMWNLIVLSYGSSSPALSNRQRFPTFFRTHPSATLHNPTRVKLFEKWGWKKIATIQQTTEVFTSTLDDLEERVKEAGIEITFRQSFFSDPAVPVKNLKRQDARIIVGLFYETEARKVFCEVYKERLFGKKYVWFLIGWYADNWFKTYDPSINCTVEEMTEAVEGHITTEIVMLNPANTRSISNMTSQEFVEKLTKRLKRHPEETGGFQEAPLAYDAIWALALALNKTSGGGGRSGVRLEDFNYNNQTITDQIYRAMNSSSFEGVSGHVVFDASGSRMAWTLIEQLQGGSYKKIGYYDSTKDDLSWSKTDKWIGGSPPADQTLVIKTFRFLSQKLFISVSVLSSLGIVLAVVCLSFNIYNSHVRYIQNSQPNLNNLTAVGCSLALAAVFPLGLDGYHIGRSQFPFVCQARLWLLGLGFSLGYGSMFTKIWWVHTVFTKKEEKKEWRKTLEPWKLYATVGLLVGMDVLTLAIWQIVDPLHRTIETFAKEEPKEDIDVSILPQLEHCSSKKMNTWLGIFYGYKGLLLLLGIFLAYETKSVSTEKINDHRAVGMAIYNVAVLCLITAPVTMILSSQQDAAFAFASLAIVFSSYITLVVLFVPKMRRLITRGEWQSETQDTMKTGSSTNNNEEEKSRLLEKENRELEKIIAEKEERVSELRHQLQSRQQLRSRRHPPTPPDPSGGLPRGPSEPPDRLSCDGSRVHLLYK
Protocol: In Vitro [^35S]GTPγS Binding Assay in Rat Cortical Membranes
Cortices of freshly harvested rat brains were dissected on an ice-cold surface and homogenized by a glass Dounce homogeniser immediately in ice-cold buffer containing 50 mM Tris, 5 mM MgCl2 and 1 mM EDTA (pH=7.6). Tissue homogenates were centrifuged at 40000 g for 15 min at 4° C. Membrane pellets were resuspended in the same buffer and membranes were incubated for 10 min at 30° C. in a shaking water bath to eliminate endogenous GABA. Homogenates were centrifuged again under the same conditions. The final pellets were resuspended in ice-cold buffer (pH=7.6) containing 50 mM Tris, 100 mM NaCl, 7 mM MgCl2, 1 mM EDTA and 1 mM dithiotreithol (DTT) to yield a concentration of 20 mg tissue weight/ml and frozen at −70° C. until use. The assay was done in a buffer containing 50 mM Tris (pH=7.4), 100 mM NaCl, 7 mM MgCl2, 1 mM EDTA and 1 mM DTT. Each assay tube contained 150 μL GDP (in a final concentration of 50 μM), 100 μL ligand and 125 μL of the membrane suspension ([…]). The assay tubes were preincubated for 10 min at 30° C. to assure equilibrium. Nonspecific binding was determined in the presence of 10 μM GTPγS; basal binding was determined in the presence of buffer only. After addition of […] [^35S]GTPγS in a volume of 25 μL to the tubes, membranes were incubated for an additional 60 min at 30° C. The assay was terminated by rapid filtration through Packard UniFilter GF/B using a Packard harvester and washed four times with 1 ml ice-cold buffer. After drying the filters at 40° C. for 1 h, 40 μL Microscint (Packard) was added to the filters and radioactivity of the filters was determined by a TopCount NXT (PerkinElmer, Waltham, MA; Alper and Nelson, Eur. J. Pharmacol. 1998, 343, 303-312; Rinken et al, Biochem. Pharmacol. 1999, 57, 155-162). Data thus gathered were used to determine PAM EC50 values for each compound as primary in vitro activity end point.
In Table 1 compounds of this invention measured in the [^35S]GTPγS binding assay are listed.

Row | Molecule | EC50 [nM]
1 | 2-[(3R)-3-{5,6-dimethyl-2-[trans-4-(trifluoromethyl)cyclohexyl]pyrazolo[1,5-a]pyrimidin-7-yl}-3-methylpiperidin-1-yl]acetic acid hydrochloride [Example 19] | 100 to 1000
2 | Cc1nc2cc([C@H]3CC[C@H](C(F)(F)F)CC3)nn2c([C@@H]2CN(C)CC[C@@H]2C)c1C (racemic) [Example 56] | 1000 to 10000
3 | CC(=O)N1CC[C@@H](C)[C@@H](c2cc(C)nc3c(F)c([C@H]4CC[C@H](C(F)(F)F)CC4)nn23)C1 (single isomer, unassigned) [Example 3] | 1000 to 10000
4 | Cc1cc([C@@H]2CN(C=O)CC[C@@H]2C)n2nc([C@H]3CC[C@H](C(F)(F)F)CC3)cc2n1 (single isomer, unassigned) [Example 8] | 1000 to 10000
5 | Cc1cc([C@@H]2CN(C=O)C(C)(C)CO2)n2nc([C@H]3CC[C@H](C(F)(F)F)CC3)cc2n1 (single isomer, unassigned) [Example 10] | 1000 to 10000
6 | COC(=O)N1C[C@@H](c2cc(C)nc3cc([C@H]4CC[C@H](C(F)(F)F)CC4)nn23)OCC1(C)C (single isomer, unassigned) [Example 12] | 1000 to 10000
7 | COC(=O)N1CC[S+]([O-])C(c2cc(C)nc3cc([C@H]4CC[C@H](C(F)(F)F)CC4)nn23)C1 (stereo partly shown) [Example 17] | 1000 to 10000
8 | Cc1nc2cc([C@H]3CC[C@H](C(F)(F)F)CC3)nn2c([C@@H]2CCCN(C(=O)[C@@H](N)CO)C2)c1C [Example 21, (2S)-2-amino-1-[(3R)-3-{5,6-dimethyl-2-[trans-4-(trifluoromethyl)cyclohexyl]pyrazolo[1,5-a]pyrimidin-7-yl}piperidin-1-yl]-3-hydroxypropan-1-one] | 1000 to 10000
9 | Cc1cc([C@@H]2CCCN(C=O)C2)n2nc([C@H]3CC[C@H](C(F)(F)F)CC3)cc2n1 [Example 22, (3R)-3-{5-methyl-2-[trans-4-(trifluoromethyl)cyclohexyl]pyrazolo[1,5-a]pyrimidin-7-yl}piperidine-1-carbaldehyde] | 100 to 1000
10 | Cc1cc([C@@H]2CCCN(C(=N)N)C2)n2nc([C@H]3CC[C@H](C(F)(F)F)CC3)cc2n1 [Example 23, (3R)-3-{5-methyl-2-[trans-4-(trifluoromethyl)cyclohexyl]pyrazolo[1,5-a]pyrimidin-7-yl}piperidine-1-carboximidamide hydrochloride] | 100 to 1000
11 | Cc1cc([C@@H]2CCCN(C(C)C)C2)n2nc([C@H]3CC[C@H](C(F)(F)F)CC3)cc2n1 [Example 24, (3R)-3-{5-methyl-2-[trans-4-(trifluoromethyl)cyclohexyl]pyrazolo[1,5-a]pyrimidin-7-yl}-1-(propan-2-yl)piperidine] | 1000 to 10000
12 | Cc1cc([C@H]2CN(C(N)=O)CCO2)n2nc([C@H]3CC[C@H](C(F)(F)F)CC3)cc2n1 [Example 26, (2R)-2-{5-methyl-2-[trans-4-(trifluoromethyl)cyclohexyl]pyrazolo[1,5-a]pyrimidin-7-yl}morpholine-4-carboxamide] | 100 to 1000
13 | Cc1cc([C@@H]2CCCS(=O)(=O)C2)n2nc([C@H]3CC[C@H](C(F)(F)F)CC3)cc2n1 [Example 27, 3-{5-methyl-2-[trans-4-(trifluoromethyl)cyclohexyl]pyrazolo[1,5-a]pyrimidin-7-yl}-1λ^6-thiane-1,1-dione] | 100 to 1000
14 | Cc1cc(C2OCCN(C)C2=O)n2nc([C@H]3CC[C@H](C(F)(F)F)CC3)cc2n1 (stereo partly drawn) [Example 30, 4-methyl-2-{5-methyl-2-[trans-4-(trifluoromethyl)cyclohexyl]pyrazolo[1,5-a]pyrimidin-7-yl}morpholin-3-one] | 1000 to 10000
15 | CC(=O)N1CCC[C@@H](c2c(C)c(C)nc3cc([C@H]4CC[C@H](C(F)(F)F)CC4)nn23)C1 [Example 33] | 100 to 1000

Now from value to molecule:

Row | EC50 [nM] | Molecule
16 | 100 to 1000 | Cc1cc([C@@H]2CN(C(=O)N(C)C)CC[C@@H]2C)n2nc([C@H]3CC[C@H](C(F)(F)F)CC3)c(F)c2n1 (racemic) [Example 46]
17 | 100 to 1000 | CC(=O)N1CC[C@H](C)[C@H](c2c(C)c(C)nc3cc([C@H]4CC[C@H](C(F)(F)F)CC4)nn23)C1 (racemic) [Example 55]
18 | 100 to 1000 | Cc1nc2cc([C@H]3CC[C@H](C(F)(F)F)CC3)nn2c([C@@H]2CN(C(=N)N)CC[C@@H]2C)c1C (racemic) [Example 57]
19 | 100 to 1000 | COC(=O)N1CC[C@H](C)[C@H](c2cc(C)nc3cc([C@H]4CC[C@H](C(F)(F)F)CC4)nn23)C1 (racemic) [Example 76]
20 | 100 to 1000 | Cc1cc([C@H]2CCCN(C=O)[C@H]2C)n2nc([C@H]3CC[C@H](C(F)(F)F)CC3)cc2n1 (racemic) [Example 81]
21 | 100 to 1000 | Cc1cc([C@@H]2CN(S(C)(=O)=O)CC[C@@H]2C)n2nc([C@H]3CC[C@H](C(F)(F)F)CC3)cc2n1 (racemic) [Example 85]
22 | < 100 | COC(=O)N1CCC[C@H](c2cc(C)nc3cc([C@H]4CC[C@H](C(F)(F)F)CC4)nn23)[C@H]1C (racemic) [Example 92]
23 | 100 to 1000 | Cc1cc([C@H]2C[C@@H](C)CN(C=O)C2)n2nc([C@H]3CC[C@H](C(F)(F)F)CC3)cc2n1 (racemic) [Example 104]
24 | 100 to 1000 | COC(=O)N1CC[C@H](C)[C@@H](c2cc(C)nc3cc([C@H]4CC[C@H](C(F)(F)F)CC4)nn23)C1 (racemic) [Example 159]
25 | 100 to 1000 | Cc1cc([C@@H]2CN(C=O)CC[C@@H]2C)n2nc([C@H]3CC[C@H](C(F)(F)F)CC3)cc2n1 (racemic) [Example 160]
26 | 100 to 1000 | Cc1cc(C2CCCOC2)n2nc([C@H]3CC[C@H](C(F)(F)F)CC3)cc2n1 (mixture of isomers) [Example 161]
27 | 100 to 1000 | CC(=O)N1CCC(C)C(c2cc(C)nc3c(F)c(C4CCC(C(F)(F)F)CC4)nn23)C1 (single isomer, unassigned) [Example 2]
28 | 100 to 1000 | COC(=O)N1CC[C@H](C)[C@@H](c2cc(C)nc3cc([C@H]4CC[C@H](C(F)(F)F)CC4)nn23)C1 (single isomer, unassigned) [Example 4]
29 | 100 to 1000 | COC(=O)N1CC[C@H](C)[C@H](c2cc(C)nc3cc([C@H]4CC[C@H](C(F)(F)F)CC4)nn23)C1 (single isomer, unassigned) [Example 6]
30 | 100 to 1000 | COC(=O)N1CC[C@@H](C)[C@@H](c2cc(C)nc3cc([C@H]4CC[C@H](C(F)(F)F)CC4)nn23)C1 (single isomer, unassigned) [Example 7]
31 | < 100 | Cc1cc([C@H]2CCCOC2)n2nc([C@H]3CC[C@H](C(F)(F)F)CC3)cc2n1 (single isomer, unassigned) [Example 28]
32 | 100 to 1000 | Cc1cc([C@@H]2CCCOC2)n2nc([C@H]3CC[C@H](C(F)(F)F)CC3)cc2n1 (single isomer, unassigned) [Example 29]
33 | 100 to 1000 | Cc1nc2cc([C@H]3CC[C@H](C(F)(F)F)CC3)nn2c([C@]2(C)CCCN(CC#N)C2)c1C [Example 18, 2-[(3R)-3-{5,6-dimethyl-2-[trans-4-(trifluoromethyl)cyclohexyl]pyrazolo[1,5-a]pyrimidin-7-yl}-3-methylpiperidin-1-yl]acetonitrile hydrochloride]
34 | < 100 | Cc1cc([C@H]2CN(S(N)(=O)=O)CCO2)n2nc([C@H]3CC[C@H](C(F)(F)F)CC3)cc2n1 [Example 25, (2R)-2-{5-methyl-2-[trans-4-(trifluoromethyl)cyclohexyl]pyrazolo[1,5-a]pyrimidin-7-yl}morpholine-4-sulfonamide]
